melting point	Structure (SMILES)
150 to 152 °C	CS(=O)(=O)c1ccc(-c2cnn(CC=C(Cl)Cl)c(=O)c2-c2ccc(F)cc2)cc1
> 300 °C	O=C(NCc1ccn(C2=CC3=C(CC2)CCc2[nH]c(=O)c(=O)n(O)c23)c1)Nc1ccc(C(=O)O)cc1
120 °C	Clc1ccc(OCSc2ncc(Cl)cn2)cc1
80 °C	CCCCc1c(C(=O)OCC)[nH]c2cccc(SC)c2c1=O
103 °C	CCCCCCCCC#Cc1ccc(C(=O)O)cc1
98 to 105 °C	O=C(O)c1ccccc1Nc1ccc(CCCCc2ccc(Cl)c(Cl)c2)cc1
46 to 47 °C	COc1cc(CSCCNC(=O)c2c(Cl)cccc2Cl)cc(OC)c1
61 °C	NS(=O)(=O)c1ccc(-c2c(-c3ccccc3)noc2CC(=O)O)cc1
154 °C	COc1cc(-c2ccc(NN)nn2)ccc1OC(F)F
158 to 165 °C	COC(=O)C(=CC(=CN(C)C)c1cc(OCc2ccccc2)ccc1[N+](=O)[O-])[N+](=O)[O-]
163 °C	O=C(Nc1nc(C2CC2)no1)C(c1ccccc1)c1ccccc1
131 to 132 °C	COC1CN(c2ccc(N3C[C@H](CO)OC3=O)cc2F)C1
198 to 201 °C	CN1c2ccccc2CN(C(=O)c2ccc(-c3ccccc3)cc2)c2ccccc21
162 °C	CN(C)C(=S)Oc1ccc(C(=O)c2ccc(C#N)cc2)cc1
95 to 96 °C	O=C(c1ccccc1)N1CCC(COc2ccccc2)CC1
261 to 262 °C	CCSc1ccc2oc3cc(-c4nnn[nH]4)ccc3c(=O)c2c1
261 °C	FC(F)(F)c1ccc(-c2cc(C(F)(F)F)n3ncc(-c4ccncc4)c3n2)cc1
166 to 168 °C	CC(C#N)=C1CCN(c2ccc(N3C[C@H](CNC(=O)C(Cl)(Cl)Cl)OC3=O)cc2F)CC1
151 to 153 °C	CC1(C)CCCN(CCNc2ccnc3cc(Cl)ccc23)C1
106 °C	O=c1ncc(Cl)cn1COCc1cnsn1
50 to 55 °C	CCOCCn1c(N2CCCN(CCC3(c4ccccn4)CCN(C(=O)c4cc(OC)c(OC)c(OC)c4)C3)CC2)nc2ccccc21 (configuration not stated)
174 to 175 °C	Cc1ccccc1Nc1nc(N(C)c2ccccc2)c2cccc(O)c2n1
168 to 172 °C	CCc1cn(C2CC(O)C(COC(c3ccccc3)(c3ccccc3)c3ccccc3)O2)c(=O)[nH]c1=O (configuration not stated)
57 to 58 °C	CCOC(=O)C=CC(=O)c1ccc(Oc2ccc(Cl)cc2)cc1

melting point	Structure (SMILES)
109 to 110 °C	CN1C(C)(C)CC(O[Si](c2ccccc2)(c2ccccc2)c2ccccc2)CC1(C)C
73 to 74 °C	Cc1nc(N(C)C)ncc1OCc1ccccc1
95 to 97 °C	CCOCn1c(Sc2ccc(Cl)c(Cl)c2)cc(C#N)c1-c1ccc(Cl)cc1
122 to 124 °C	CN1CCN(c2cc3c(cc2F)c(=O)c(C(=O)O)cn3C2CC2)CC1c1ccco1 (configuration not stated)
118 to 120 °C	Cc1cc(-c2ccc(S(N)(=O)=O)cc2)n(-c2ccc(C)c(C)c2)c1
134 °C	COc1ccc(Cl)c(Oc2c(C)nc(N3CCOCC3)nc2Cl)c1
92 to 93 °C	CCCCOc1c(CNC(=O)OC(C)(C)C)n(CC(C)(C)C)c(=O)c2ccc(CO)cc12
126 to 128 °C	Cc1cc(C#N)cc(C(C#N)c2nc(OCc3ccccc3)nc(OCc3ccccc3)c2C(C)(C)C)c1 (configuration not stated)
242 °C	CC(C)NC(=S)Nc1nc2ccc(OC(F)(F)F)cc2s1
162 °C	COCCC(=O)OC1(C(=O)COC(C)=O)CCC2C3CC(C)C4=CC(=O)C=CC4(C)C3C(O)CC21C (configuration not stated)
146 °C	Cc1c(-c2ccnnc2)ssc1=S
128 to 129 °C	CN1CCC(Nc2nccc(Oc3ccc(NC(=O)c4cc(F)cc(N5CCOCC5)c4)c4ccccc34)n2)CC1
140 to 143 °C	N#Cc1ccc(Nn2cnnc2)cc1-c1ccc(C(F)(F)F)cc1
135 to 140 °C	NC(=O)CCN1CCC(C2c3ccccc3C=Cc3ccccc32)CC1
92 to 94 °C	O=Cc1ccc2c(c1F)OC(c1ccccc1)(c1ccccc1)O2
120 °C	CCC1(Cc2ccccc2)C(=O)N(C)C(=Cc2ccccc2C#N)C(=O)N1C (configuration not stated)
223 to 224 °C	Cc1ccc(-c2ccc3c(c2)C=C(C(=O)Nc2ccc(CN4CCC(O)CC4)cc2)CC3)cc1
115 to 117 °C	O=C(N[C@@H](Cc1c[nH]c2ccccc12)C(=O)O)c1ccc([N+](=O)[O-])cc1
227 to 230 °C	Cc1cc(O)ccc1-c1c(C=O)sc(-c2ccc(O)c(F)c2)c1C
173 to 176 °C	O=C(O)Cc1ccc2c(c1)C(=O)c1cccc(Cl)c1CO2
185 °C	CC(=O)OC1CSC(Oc2cccnc2-c2ccoc2)C(OC(C)=O)C1OC(C)=O (configuration not stated)
175 to 177 °C	O=C1N(Cc2cccnc2)c2ccccc2C12COc1cc(F)c(F)cc12 (configuration not stated)
233 °C	CC1(C)CCC(C)(C)c2cc(-c3cc(-c4ccc(C(=O)O)cc4)ccc3OCCNC3CC3)ccc21
153 to 155 °C	COc1cc(Nc2nc3cccc(-c4cccc(C)c4)c3o2)cc(OC)c1OC

melting point	Structure (SMILES)
183 to 184 °C	COc1ccc(F)cc1C(C)(C)CC(O)(Cn1cc(CO)c(=O)c2ccccc21)C(F)(F)F (configuration not stated)
254 to 256 °C	COc1cc2cc(C3=NNC(=O)CC3)sc2cc1OC
68 °C	COc1ccc(C2NCCc3c2[nH]c2ccccc32)cc1F (configuration not stated)
133 to 135 °C	CN(C)C=CC(=O)c1cncnc1
259 to 262 °C	Cn1ncc(C(=O)N2CC(F)C2)c1C(=O)Nc1ccn2nc(-c3ccccc3)nc2c1
202 to 205 °C	Cn1cnc(COc2nc3c(cc2-c2cccc(F)c2)nnn3-c2ccccc2F)n1
143 to 145 °C	CSc1ccc(C(=O)Nc2ccccc2)cc1N
165 to 166 °C	CCOc1cc(N(Cc2cncnc2)c2ccc(C(=O)O)cc2)ccc1OC(F)F
> 250 °C	O=c1c(-c2ccccc2O)coc2cc(O)c(Cl)cc12
184 to 185 °C	COC1OCC[C@@H]1NC(=O)[C@H](CC(C)C)NC(=O)Nc1cccc2ccccc12 (some centres not stated)
159 to 160 °C	Nc1ccc2[nH]c(CO)cc2c1
112 to 113 °C	NC(=O)N(O)CC1CCC1
170 to 171 °C	CCn1nc(OCC(=O)c2ccc(F)cc2)c(-c2ccc(F)cc2)c1-c1ccc(OC)cc1
185 to 187 °C	COc1ccc(-c2cc(C(=O)O)c(=O)n(CCCc3ccc(F)cc3)n2)cc1F
99 to 101 °C	CCc1nc(C#N)c(N2CCN(c3ccccc3)CC2)nc1C
193 to 196 °C	Cc1cc(N2CCC3(CC2)OCCO3)c2cc(C)c(-c3ccc(Cl)cc3Cl)n2n1
107 °C	CCc1noc(-c2cn(-c3cccc(OC(C)C)c3)cn2)n1
129 to 130 °C	CCOc1ccc(OCc2ccc(OCc3nc(-c4ccccc4)oc3C)cc2)cc1CCC(=O)O
132 to 134 °C	CC#CCn1nnc2cc3c(=O)n(C(C)Cn4ncnn4)nnc3cc2c1=O (configuration not stated)
134 to 139 °C	Cc1nc(N2CCc3ccccc3CC2)c(C#N)c(=O)n1CCN(C)C
> 250 °C	Nc1nc(N)nc(-c2ccc(-c3ccccc3)s2)n1
158 to 159 °C	FC(F)(F)c1cccc(CSc2nnc(-c3ccc4ncccc4c3)o2)c1
150 to 154 °C	COc1ccc(-c2cc(OC3SCC(O)C(O)C3O)ccn2)cc1 (configuration not stated)
204 to 206 °C	O=C1Nc2ccc(S(=O)(=O)N3CCC[C@H]3COc3ccccc3)cc2C1=O

melting point	Structure (SMILES)
250 °C	O=C(O)c1ccc(S(=O)(=O)Cc2c(O[C@H](Cn3ccnc3)c3ccccc3)ccc3c2CCCC3=O)cc1
179 °C	C(=NNc1ccccc1)c1ccccn1
216 to 218 °C	CS(=O)(=O)c1ccc(C(=O)Nc2ccc(-n3nc(C(F)(F)F)cc3C(F)(F)F)cc2)cc1
103 to 109 °C	CCCCCCCCCCCCCCCCCCOc1cn(-c2ccc(OCc3ccccc3)cc2)c(CNCCCN(C)C)cc1=O
82 to 84 °C	OCCOc1cccc2cccnc12
234 to 237 °C	CC1=Nc2c3ccccc3nc(=O)n2C1C (configuration not stated)
147 to 148 °C	N#CC(C#N)=C(NC1CCN(Cc2ccccc2)CC1)NC1CCN(Cc2ccccc2)CC1
108 to 110 °C	COc1ccc2c(c1)OC(C(=O)O)C2 (racemic)
> 250 °C	COc1ccccc1CN[C@H]1CCCN[C@H]1c1ccc2ccccc2c1 (relative stereo)
75 to 76 °C	CCC(=CC(CSc1nnc(C)s1)=NO)C(C)[N+](=O)[O-] (configuration not stated)
114 to 116 °C	C=CCNC(=O)n1nc(-c2ccccc2)cc1NC(=O)CC(=O)C(F)(F)F
150 °C	N#Cc1ccc([C@@H]2CN(S(=O)(=O)c3cccc(C(=O)O)c3)C[C@@]23NC(=O)N(c2cc(Cl)cc(Cl)c2)C3=O)cc1 (relative stereo)
255 to 258 °C	CC12CCC(O)CC1=CCC1C2CCC2(C)C1CCC2n1ccnc1 (configuration not stated)
122 °C	CCN(C(=O)Cc1c(F)cccc1F)C(c1cnccc1C(F)(F)F)C(C)C (configuration not stated)
112 to 115 °C	O=C(NCc1ccccc1)c1nn(-c2ccc(Cl)cc2)c2c1C1CCC2C1 (configuration not stated)
163 to 166 °C	Cc1cc(N(C)C(=O)OC(C)(C)C)c(C)c(C)c1O
114 to 116 °C	CCn1c(=O)c(-c2cc(OC)cc(OC)c2)cc2cnc(S(C)=O)nc21 (configuration not stated)
162 to 166 °C	O=C(c1cccs1)c1cnn2c(-c3cc([N+](=O)[O-])ccc3Cl)ccnc12
58 to 61 °C	CCNc1nc(SC)ncc1C=O
245 °C	Cc1ncc2c(c1O)COC2(C)c1ccccc1 (configuration not stated)
214 °C	CC(=O)N1CCC(Nc2nc3ccccc3n2Cc2ccc(CO)o2)CC1

Structure (SMILES)	melting point
OCc1cccc(-c2coc(-c3cn([C@H]4CN5CCC4CC5)nn3)c2)c1	212 °C
Cc1c(F)c([N+](=O)[O-])cc([N+](=O)[O-])c1F	81 to 82 °C
CCOc1c(C(=O)NC2CN3CCC2CC3)cc(Cl)c2c1CCCN2 (configuration not stated)	160 °C
CN(C)C1(c2cccc(F)c2)CCC2(OCCc3c2[nH]c2ccccc32)C(CNC(=O)C=Cc2cccc(-c3ccccc3)c2)C1 (configuration not stated)	134 to 140 °C

— a melting point compilation (Tetko et al.; mined from patent text by program, amines drawn as free bases though some values may be those of a salt)
